These results are taken from article PMC7398594 (Neurotoxicology, 2020).

Common to all, as to type: cell-based, mouse
In assay [1] the test system is HEI-OC1 cells. As to the kind of experiment: MTT cellular viability assay. As to conditions: HEI-OC1 cell culture, ± standard deviation.
Assay [2] deals with caspase-3/7 activity in HEI-OC1 cells. The assay is described as follows: Caspase-3/7 luminescence assay. The following applies: treated at compound IC50 value.
Assay [3] concerns HEI-OC1 cells. The assay is described as follows: Reactive oxygen species assay. The following applies: 24 hours, treated at compound IC50 value.
Assay [4] has as its system HEI-OC1 cells. As to the kind of experiment: Mitochondrial membrane potential assay. The following applies: treated at compound IC50 value.

As for `N.N.[Cl][Pt][Cl]` [cisplatin], the IC50 with HEI-OC1 cells [1] (24 Hr treatment) was 1660 ± 330 nM; with HEI-OC1 cells [1] (48 Hr treatment), 4520 ± 170 nM. The “caspase-3/7 activity, % of negative control” value (“caspase-3/7 activity, %” below) was 86% in assay [2] (24 hours) and 352% in assay [2] (48 hours). Also, the “ROS yield, % of negative control” value with HEI-OC1 cells [3] was found to be 751%. Also, the figures for the “mitochondrial membrane polarization (FL1 to FL3 ratio), % of negative control” value in the assay on HEI-OC1 cells [4] (24 hours) and with HEI-OC1 cells [4] (48 hours) were 109% and 110%, respectively.

`[NH3+][Pt-2]([NH3+])([Cl])[n+]1cc2ccccc2c2ccccc21` (stereo not drawn) [phenanthriplatin, cis-diammine (phenanthridine) chloroplatinum(II)]: the values for the IC50 in the assay with HEI-OC1 cells [1] (24 Hr treatment) and with HEI-OC1 cells [1] (48 Hr treatment) were 1640 ± 190 nM and 2310 ± 290 nM, respectively. Moreover, the “caspase-3/7 activity, %” value in assay [2] (24 hours) is 83%; in assay [2] (48 hours), 89%. Moreover, the “ROS yield, % of negative control” value in the assay on HEI-OC1 cells [3] was found to be 741%. In addition, the “mitochondrial membrane polarization (FL1 to FL3 ratio), % of negative control” value is on record as 98% with HEI-OC1 cells [4] (24 hours) and 88% in the assay on HEI-OC1 cells [4] (48 hours).

Take `[NH3+][Pt-2]([NH3+])([Cl])[n+]1ccccc1` (stereo not drawn) [pyriplatin, cis-diammine (pyridine) chloroplatinum(II)]: the IC50 was determined as 11100 ± 280 nM in the assay on HEI-OC1 cells [1] (24 Hr treatment) and 2520 ± 110 nM in the assay on HEI-OC1 cells [1] (48 Hr treatment). The “caspase-3/7 activity, %” value was found to be 82% in assay [2] (24 hours) and 101% in assay [2] (48 hours). Besides, the “ROS yield, % of negative control” value in the assay with HEI-OC1 cells [3] is recorded as 618%. Also, the “mitochondrial membrane polarization (FL1 to FL3 ratio), % of negative control” value amounted to 101% in the assay on HEI-OC1 cells [4] (24 hours) and 90% in the assay on HEI-OC1 cells [4] (48 hours).
